Publication PMC7125586 (Febs Letters, 2007)

Experiments:
gp160 processing = conditions: cell-permeable peptide; cited from earlier work
[1] = biological target: furin (recombinant soluble hfurin) (Homo sapiens, UniProt P09958); assay: Inhibition assay of furin with fluorogenic substrate Pyr-RTKR-MCA; assay type: biochemical; conditions: up to 100 μM heparin (20 μM or 100 μM); fluorescence
Chain of furin (recombinant soluble hfurin) (P09958 108-715 limits assumed): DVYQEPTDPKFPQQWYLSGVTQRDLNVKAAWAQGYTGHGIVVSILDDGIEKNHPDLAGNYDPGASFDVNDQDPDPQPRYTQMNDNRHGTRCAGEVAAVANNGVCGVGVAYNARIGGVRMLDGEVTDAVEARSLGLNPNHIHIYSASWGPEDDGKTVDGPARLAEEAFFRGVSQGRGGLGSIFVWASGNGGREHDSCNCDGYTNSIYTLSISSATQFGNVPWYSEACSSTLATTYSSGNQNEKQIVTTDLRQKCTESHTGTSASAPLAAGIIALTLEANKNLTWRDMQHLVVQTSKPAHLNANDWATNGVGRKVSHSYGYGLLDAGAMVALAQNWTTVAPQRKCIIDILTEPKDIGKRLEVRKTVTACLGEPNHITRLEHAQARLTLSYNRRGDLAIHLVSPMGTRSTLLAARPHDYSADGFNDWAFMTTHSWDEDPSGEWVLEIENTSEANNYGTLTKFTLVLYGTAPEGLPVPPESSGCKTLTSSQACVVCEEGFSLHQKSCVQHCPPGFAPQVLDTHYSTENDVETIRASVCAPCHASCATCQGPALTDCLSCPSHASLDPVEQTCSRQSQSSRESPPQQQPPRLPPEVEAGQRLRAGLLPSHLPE

| Substance | Interference with gp160 processing (gp160 processing) | Influence on furin activity on Pyr-RTKR-MCA processing [1] |
| --- | --- | --- |
| KIEPLGVAPTKAKRRVVQREKR [22mer] | interferes with gp160 processing | – |
| heparin | – | did not influence furin activity |
